From BindingDB's records for doi:10.1074/jbc.M109.039511 (University of Florida, 2010)
pKi: −log10 of the molar value. Counter-ions that a name gives are not always drawn.

The compounds below were run against T1, Acid phosphatase (Francisella tularensis subsp. tularensis (strain SCHU S4 / Schu 4), UniProt Q5NIC0) (assay: Inhibitor Screening Assay).
T1 sequence (Q5NIC0 whole entry): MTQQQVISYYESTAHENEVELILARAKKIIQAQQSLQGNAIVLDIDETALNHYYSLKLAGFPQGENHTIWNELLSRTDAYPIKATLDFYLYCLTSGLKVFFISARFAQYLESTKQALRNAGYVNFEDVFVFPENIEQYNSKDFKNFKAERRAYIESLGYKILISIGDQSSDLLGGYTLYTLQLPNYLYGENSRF
Procedure: The inhibitor screening assays were performed in 96-well format with 1152 small molecules found in the Prestwick chemical library (Prestwick Chemical, France).

In order of rising pKi:
1. OC[C@H](O)c1oc(O)c(O)c1O [ascorbic acid]  3.42
2. COc1ccc(CC2c3cc(OC)c(OC)cc3CC[N+]2(C)CCC(=O)OCCCCCOC(=O)CC[N+]2(C)CCc3cc(OC)c(OC)cc3C2Cc2ccc(OC)c(OC)c2)cc1OC (stereo not drawn)  3.47
3. O=c1c(O)c(-c2ccc(O)cc2)oc2cc(O)cc(O)c12  3.72
4. O=c1c(O)c(-c2cc(O)c(O)c(O)c2)oc2cc(O)cc(O)c12  3.81
5. CCN(CC)CCNC(=O)c1ccc(N)cc1 [4-amino-N-[2-(diethylamino)ethyl]benzamide;hydrochloride]  4.83
6. CC1(C)OC[C@@H]([C@H]2OC(=O)C(=O)C2O)O1 (stereo partly drawn) [(+)-5,6-O-Isopropylidene-L-ascorbic acid]  5.49
7. CCCCCCCCCCCCCCCC[N+](C)(C)CCN(Cc1ccc(OC)cc1)c1ncccn1 [SMR001233380]  6.23
8. O=C1OC(C(O)CO)=C(O)C1OP(=O)(O)O [2-phospho-L-ascorbic acid]  6.49
